# Literature values in patent US20260207481A1, “INTRANASAL […] OF C[…] TREAT CENTRAL NERVOUS SYSTEM DISORDERS” (Nose to Brain Therapeutics LLC, priority 2019, published 2026).
# Key:
# [1] = oral mucosal sprays compared to IV administration (FIG. 2)
# CB2 = CB2 (Homo sapiens, UniProt P34972)
# Chain of CB2 (P34972 whole entry): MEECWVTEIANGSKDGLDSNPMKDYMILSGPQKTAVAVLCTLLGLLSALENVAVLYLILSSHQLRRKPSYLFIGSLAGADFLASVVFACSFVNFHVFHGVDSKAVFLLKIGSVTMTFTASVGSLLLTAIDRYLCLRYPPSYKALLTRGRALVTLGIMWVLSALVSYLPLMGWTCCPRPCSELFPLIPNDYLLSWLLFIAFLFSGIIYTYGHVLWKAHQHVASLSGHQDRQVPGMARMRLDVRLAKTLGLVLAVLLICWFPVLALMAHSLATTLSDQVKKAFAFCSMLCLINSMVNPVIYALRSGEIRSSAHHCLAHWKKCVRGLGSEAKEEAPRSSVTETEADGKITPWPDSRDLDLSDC
smiles,measurement,setting,value
"C=C(C)[C@@H]1CCC(C)=C[C@H]1c1c(O)cc(CCCCC)cc1O [CBD, Cannabidiol]",Cmax,[1],poor
same,binding affinity to CB2,CB2,minimal
